Results: patent US11285135B2 (AMGEN INC., priority 2016, dated 2022)

These molecules were tested against GDP-bound protein (aa 1-169), containing both G12C and C118A amino acid substitutions (Homo sapiens, UniProt P01116, C118A/G12C) (assay: Coupled Nucleotide Exchange Assay (SOS-mediated nucleotide exchange, AlphaScreen)). Settings: 2 hours compound pre-incubation.
Chain of GDP-bound protein (aa 1-169), containing both G12C and C118A amino acid substitutions (P01116 1-169 isoform P01116-2 G12C/C118A): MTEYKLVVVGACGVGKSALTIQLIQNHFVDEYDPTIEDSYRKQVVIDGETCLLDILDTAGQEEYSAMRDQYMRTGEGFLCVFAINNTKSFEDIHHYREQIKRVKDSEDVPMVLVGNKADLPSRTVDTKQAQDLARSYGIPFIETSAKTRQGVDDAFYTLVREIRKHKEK
Format: biochemical
Procedure: Coupled Nucleotide Exchange Assay: Purified GDP-bound […] protein (aa 1-169), containing both G12C and C118A amino acid substitutions and an N-terminal His-tag, was pre-incubated with a compound dose-response titration for 2 hours in assay buffer (25 mM HEPES pH 7.4, 10 mM MgCl2, and 0.01% Triton X-100). Following compound pre-incubation, purified SOS protein (aa 564-1049) and GTP (Roche 10106399001) were added to the assay wells and incubated for an additional hour. […] The assay plates were then read on a PerkinElmer EnVision Multilabel Reader, using AlphaScreen® technology, and data were analyzed using a 4-parameter logistic model to calculate IC50 values.
With `C=CC(=O)N1CCN(c2snc3c(F)c(-c4cccc5ccncc45)c(Cl)cc23)CC1` [Example 3-3, 1-(4-(5-chloro-7-fluoro-6-(8-isoquinolinyl)-2,1-benzothiazol-3-yl)-1-piperazinyl)-2-propen-1-one] the “Coupled exchange IC50” value was 11.3 µM.
`C=CC(=O)N1CCN(c2snc3c(F)c(-c4cc(O)cc5cn(C)nc45)c(Cl)cc23)CC1` [Example 19-3, 1-(4-(5-chloro-7-fluoro-6-(5-hydroxy-2-methyl-2H-indazol-7-yl)-2,1-benzothiazol-3-yl)-1-piperazinyl)-2-propen-1-one] was tested, and the “Coupled exchange IC50” value was 115 µM.
`C=CC(=O)N1CCN(c2nnc(OC)c3cc(Cl)c(-c4c(O)cccc4F)cc23)CC1` (single isomer, unassigned) [Example 33, 2-(4-(4-acryloyl-1-piperazinyl)-7-chloro-1-methoxy-6-phthalazinyl)-3-fluorophenol] was tested, and the “Coupled exchange IC50” value was 103 µM.
In the case of `C=CC(=O)N1CCN(c2nnc(-c3ccccc3C)c3cc(-c4c(O)cccc4F)c(Cl)cc23)CC1` [Example 10-1, 1-(4-(7-Chloro-6-(2-fluoro-6-hydroxyphenyl)-4-(2-methylphenyl)-1-phthalazinyl)-1-piperazinyl)-2-propen-1-one], the “Coupled exchange IC50” value is reported as 24.5 µM.
`C=CC(=O)N[C@@H]1CCN(c2snc3c(F)c(-c4cc(O)cc5ccccc45)c(Cl)cc23)C1` [Example 1-22, N-((3R)-1-(5-chloro-7-fluoro-6-(3-hydroxy-1-naphthalenyl)-2,1-benzothiazol-3-yl)-3-pyrrolidinyl)-2-propenamide] was tested, and the “Coupled exchange IC50” value was over 250 µM.
With `C=CC(=O)N1CCN(c2snc3c(F)c(-c4c(OC)ccc5ccccc45)c(Cl)cc23)CC1` [Example 1-13, 1-(4-(5-chloro-7-fluoro-6-(2-methoxy-1-naphthalenyl)-2,1-benzothiazol-3-yl)-1-piperazinyl)-2-propen-1-one] the “Coupled exchange IC50” value was over 10 µM.
`C=CC(=O)NC1(CO)CN(c2snc3c(F)c(-c4cc(O)cc5ccccc45)c(Cl)cc23)C1` [Example 5-3, N-(1-(5-chloro-7-fluoro-6-(3-hydroxy-1-naphthalenyl)-2,1-benzothiazol-3-yl)-3-(hydroxymethyl)-3-azetidinyl)-2-propenamide] was tested, and the “Coupled exchange IC50” value was 14.2 µM.
`C=CC(=O)N1CCC[C@@H](Nc2snc3c(F)c(-c4cc(O)cc5ccccc45)c(Cl)cc23)C1` [Example 4-9, 1-((3R)-3-((5-chloro-7-fluoro-6-(3-hydroxynaphthalen-1-yl)benzo[c]isothiazol-3-yl)amino)piperidin-1-yl)prop-2-en-1-one] was tested, and the “Coupled exchange IC50” value was over 250 µM.
`C=CC(=O)N1CCN(c2snc3c(F)c(-c4cc(N)cc(C#N)c4)c(Cl)cc23)CC1` [Example 3-25, 3-amino-5-(5-chloro-7-fluoro-3-(4-(2-propenoyl)-1-piperazmyl)-2,1-benzothiazol-6-yl)benzonitrile] was tested, and the “Coupled exchange IC50” value was over 250 µM.
For `C=CC(=O)N1CCN(c2snc3c(F)c(-c4cccc5ccc(=O)[nH]c45)c(Cl)cc23)CC1` [Example 3-2, 8-(5-chloro-7-fluoro-3-(4-(2-propenoyl)-1-piperazinyl)-2,1-benzothiazol-6-yl)-2(1H)-quinolinone], the “Coupled exchange IC50” value was over 250 µM.
In the case of `C=CC(=O)N1CCN(c2snc3c(F)c(-c4ccc(F)cc4F)c(Cl)cc23)CC1` [Example 3-7, 1-(4-(5-chloro-6-(2,4-difluorophenyl)-7-fluoro-2,1-benzothiazol-3-yl)-1-piperazinyl)-2-propen-1-one], the “Coupled exchange IC50” value is reported as 6.98 µM.
For `C=C(CO)C(=O)N1CCN(c2snc3c(F)c(-c4cc(O)cc5ccccc45)c(Cl)cc23)CC1` [Example 18-3, 1-(4-(5-chloro-7-fluoro-6-(3-hydroxy-1-naphthalenyl)-2,1-benzothiazol-3-yl)-1-piperazinyl)-2-(hydroxymethyl)-2-propen-1-one], the “Coupled exchange IC50” value was 24.6 µM.
With `C=CC(=O)N1CCN(c2snc3cc(-c4c(F)cccc4OC)c(Cl)cc23)CC1` [Example 1-5, 1-(4-(5-chloro-6-(2-fluoro-6-methoxyphenyl)-2,1-benzothiazol-3-yl)-1-piperazinyl)-2-propen-1-one] the “Coupled exchange IC50” value was 6.66 µM.
